Experimental data: PubChem BioAssay AID1918931 (Molecular Pharmacology Branch, DTP, NCI, 2023)
“And” between values parts separate entries of the source, which are not always exact repeats. Equal values may be shown once.

Test system: 138582-337-R-J1-PDC complex spheroid viability
Assay: Anticancer human tumor 138582-337-R-J1-PDC patient-derived Merkel cell tumor cell line growth inhibition
Details: for viability, T/C: stronger effect = lower value; active = viability on the fitted dose curve at most 10% of control; inactive = the rest
Summary of the method: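 Multicellular complex spheroids of tumor cells with human endothelial cells (HUVEC) and mesenchymal stem cells; the LSD1 inhibitor iadademstat was combined with standard-of-care or investigational agents. Top concentration at or near clinical Cmax, half-log dilutions; final DMSO ≤0.25%.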

[1] = curve of first compound, second compound 0.1 µM
[2] = curve of first compound, second compound 0.316 µM
[3] = curve of first compound, second compound 1 µM
[4] = curve of first compound, second compound 3.16 µM
[5] = curve of first compound, second compound 10 µM
[6] = second compound 0.1 µM, first compound 0.00316 µM
[7] = second compound 0.1 µM, first compound 0.01 µM
[8] = second compound 0.1 µM, first compound 0.0316 µM
[9] = second compound 0.1 µM, first compound 0.1 µM
[10] = second compound 0.1 µM, first compound 0.316 µM
[11] = second compound 0.1 µM, first compound 1 µM
[12] = second compound 0.316 µM, first compound 0.00316 µM
[13] = second compound 0.316 µM, first compound 0.01 µM
[14] = second compound 0.316 µM, first compound 0.0316 µM
[15] = second compound 0.316 µM, first compound 0.1 µM
[16] = second compound 0.316 µM, first compound 0.316 µM
[17] = second compound 0.316 µM, first compound 1 µM
[18] = second compound 1 µM, first compound 0.00316 µM
[19] = second compound 1 µM, first compound 0.01 µM
[20] = second compound 1 µM, first compound 0.0316 µM
[21] = second compound 1 µM, first compound 0.1 µM
[22] = second compound 1 µM, first compound 0.316 µM
[23] = second compound 1 µM, first compound 1 µM
[24] = second compound 3.16 µM, first compound 0.00316 µM
[25] = second compound 3.16 µM, first compound 0.01 µM
[26] = second compound 3.16 µM, first compound 0.0316 µM
[27] = second compound 3.16 µM, first compound 0.1 µM
[28] = second compound 3.16 µM, first compound 0.316 µM
[29] = second compound 3.16 µM, first compound 1 µM
[30] = second compound 10 µM, first compound 0.00316 µM
[31] = second compound 10 µM, first compound 0.01 µM
[32] = second compound 10 µM, first compound 0.0316 µM
[33] = second compound 10 µM, first compound 0.1 µM
[34] = second compound 10 µM, first compound 0.316 µM
[35] = second compound 10 µM, first compound 1 µM
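Also: spheroids exposed to agents for 7 days.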

COc1cc(Nc2ncc3c(n2)-c2ccc(Cl)cc2C(c2c(F)cccc2OC)=NC3)ccc1C(=O)O + NC1CCC(NC2CC2c2ccccc2)CC1
> 1000 nM: IC50 [1] | IC50 [2] | IC50 [3] | IC50 [4] | IC50 [5]
inactive: viability, T/C [6] 89.6% | viability, T/C [7] 97.8% | viability, T/C [8] 85.2% | viability, T/C [9] 83.3% | viability, T/C [10] 93% | viability, T/C [11] 88.3% | viability, T/C [12] 99.2% | viability, T/C [13] 91.4% | viability, T/C [14] 91.4% | viability, T/C [15] 86.8% | viability, T/C [16] 98.2% | viability, T/C [17] 90.1% | viability, T/C [18] 89.6% | viability, T/C [19] 93.3% | viability, T/C [20] 88.1% | viability, T/C [21] 98% | viability, T/C [22] 96.3% | viability, T/C [23] 84.1% | viability, T/C [24] 98.2% | viability, T/C [25] 94.9% | viability, T/C [26] 87.1% | viability, T/C [27] 78.9% | viability, T/C [28] 74.7% | viability, T/C [29] 83% | viability, T/C [30] 99.9% | viability, T/C [31] 98.6% | viability, T/C [32] 90.5% | viability, T/C [33] 76.9% | viability, T/C [34] 87.2% | viability, T/C [35] 74.2%

CC[C@@]1(O)C(=O)OCc2c1cc1n(c2=O)Cc2cc3c(CN(C)C)c(O)ccc3nc2-1 + NC1CCC(NC2CC2c2ccccc2)CC1
> 100 nM: IC50 [1] | IC50 [2] | IC50 [3] | IC50 [4] | IC50 [5]
inactive: viability, T/C (second compound 0.1 µM, first compound 0.000316 µM) 91% | viability, T/C (second compound 0.1 µM, first compound 0.001 µM) 99.7% | viability, T/C [6] 105% | viability, T/C [7] 101% | viability, T/C [8] 98.9% | viability, T/C [9] 114% | viability, T/C (second compound 0.316 µM, first compound 0.000316 µM) 101% | viability, T/C (second compound 0.316 µM, first compound 0.001 µM) 96.8% | viability, T/C [12] 120% | viability, T/C [13] 102% | viability, T/C [14] 95.7% | viability, T/C [15] 92.2% | viability, T/C (second compound 1 µM, first compound 0.000316 µM) 92% | viability, T/C (second compound 1 µM, first compound 0.001 µM) 101% | viability, T/C [18] 115% | viability, T/C [19] 95.6% | viability, T/C [20] 105% | viability, T/C [21] 107% | viability, T/C (second compound 3.16 µM, first compound 0.000316 µM) 91.2% | viability, T/C (second compound 3.16 µM, first compound 0.001 µM) 96.6% | viability, T/C [24] 104% | viability, T/C [25] 106% | viability, T/C [26] 93.4% | viability, T/C [27] 105% | viability, T/C (second compound 10 µM, first compound 0.000316 µM) 95.4% | viability, T/C (second compound 10 µM, first compound 0.001 µM) 91.6% | viability, T/C [30] 86.8% | viability, T/C [31] 87.3% | viability, T/C [32] 91.2% | viability, T/C [33] 70.7%

CC1COCCN1c1cc(-c2ccnn2C)c2ccnc(-c3ccn[nH]3)c2n1 (configuration not stated) + NC1CC1c1ccc(-c2cccc(O)c2)cc1
34.5 nM: IC50 [1]
25.7 nM: IC50 [2]
38.4 nM: IC50 [3]
inactive: viability, T/C [6] 62.1% | viability, T/C [7] 65% | viability, T/C [8] 50.3% | viability, T/C [9] 34.1% | viability, T/C [10] 26.3% | viability, T/C [11] 28% | viability, T/C [12] 68% | viability, T/C [13] 57.4% | viability, T/C [14] 48% | viability, T/C [15] 42.9% | viability, T/C [16] 27.1% | viability, T/C [17] 27.3% | viability, T/C [18] 77.1% | viability, T/C [19] 74.7% | viability, T/C [20] 54.4% | viability, T/C [21] 28.2% | viability, T/C [22] 30.1% | viability, T/C [23] 25.8% | viability, T/C [24] 80.4% | viability, T/C [25] 65.8% | viability, T/C [26] 59.7% | viability, T/C [27] 33.5% | viability, T/C [28] 27.6% | viability, T/C [29] 26.4% | viability, T/C [30] 75.6% | viability, T/C [31] 85% | viability, T/C [32] 57.6% | viability, T/C [33] 46.2% | viability, T/C [34] 30.5% | viability, T/C [35] 26.5%
43.8 nM: IC50 [4]
67.7 nM: IC50 [5]

CC(C)c1c(-c2ccccc2)nc2c(C#N)c[nH]n2c1=O + NC1CCC(NC2CC2c2ccccc2)CC1
> 10000 nM: IC50 [1] | IC50 [2] | IC50 [3] | IC50 [4] | IC50 [5]
inactive: viability, T/C [8] 104% | viability, T/C [9] 103% | viability, T/C [10] 93.8% | viability, T/C [11] 92.3% | viability, T/C (second compound 0.1 µM, first compound 3.16 µM) 86% | viability, T/C (second compound 0.1 µM, first compound 10 µM) 89.7% | viability, T/C [14] 94.2% | viability, T/C [15] 102% | viability, T/C [16] 94.8% | viability, T/C [17] 82% | viability, T/C (second compound 0.316 µM, first compound 3.16 µM) 97.1% | viability, T/C (second compound 0.316 µM, first compound 10 µM) 102% | viability, T/C [20] 86.3% | viability, T/C [21] 93.9% | viability, T/C [22] 85.7% | viability, T/C [23] 92% | viability, T/C (second compound 1 µM, first compound 3.16 µM) 90% | viability, T/C (second compound 1 µM, first compound 10 µM) 106% | viability, T/C [26] 90% | viability, T/C [27] 86.5% | viability, T/C [28] 97.3% | viability, T/C [29] 79.5% | viability, T/C (second compound 3.16 µM, first compound 3.16 µM) 81.5% | viability, T/C (second compound 3.16 µM, first compound 10 µM) 83.5% | viability, T/C [32] 96.7% | viability, T/C [33] 82.7% | viability, T/C [34] 73.4% | viability, T/C [35] 88.2% | viability, T/C (second compound 10 µM, first compound 3.16 µM) 80.4% | viability, T/C (second compound 10 µM, first compound 10 µM) 79.7%

Nc1ncn(C2CC(O)C(CO)S2)c(=O)n1 (configuration not stated)
> 300 nM: IC50 (curve of compound)
inactive: viability, T/C (compound 0.000949 µM) 96.8% and 93.8% | viability, T/C (compound 0.003 µM) 82.8% and 110% | viability, T/C (compound 0.00949 µM) 87.8% and 94.3% | viability, T/C (compound 0.03 µM) 94.6% and 92.3% | viability, T/C (compound 0.0949 µM) 91.3% and 93.4% | viability, T/C (compound 0.3 µM) 80.5% and 74.7%

Nc1ccn(C2OC(CO)C(O)C2(F)F)c(=O)n1 (configuration not stated) + NC1CCC(NC2CC2c2ccccc2)CC1
> 300 nM: IC50 [1] | IC50 [2] | IC50 [3] | IC50 [4] | IC50 [5]
inactive: viability, T/C (second compound 0.1 µM, first compound 0.000949 µM) 96% | viability, T/C (second compound 0.1 µM, first compound 0.003 µM) 94.2% | viability, T/C (second compound 0.1 µM, first compound 0.00949 µM) 94.2% | viability, T/C (second compound 0.1 µM, first compound 0.03 µM) 95.3% | viability, T/C (second compound 0.1 µM, first compound 0.0949 µM) 94.7% | viability, T/C (second compound 0.1 µM, first compound 0.3 µM) 105% | viability, T/C (second compound 0.316 µM, first compound 0.000949 µM) 89.9% | viability, T/C (second compound 0.316 µM, first compound 0.003 µM) 92% | viability, T/C (second compound 0.316 µM, first compound 0.00949 µM) 93.6% | viability, T/C (second compound 0.316 µM, first compound 0.03 µM) 85.8% | viability, T/C (second compound 0.316 µM, first compound 0.0949 µM) 84.2% | viability, T/C (second compound 0.316 µM, first compound 0.3 µM) 106% | viability, T/C (second compound 1 µM, first compound 0.000949 µM) 98.3% | viability, T/C (second compound 1 µM, first compound 0.003 µM) 93.7% | viability, T/C (second compound 1 µM, first compound 0.00949 µM) 95.4% | viability, T/C (second compound 1 µM, first compound 0.03 µM) 80.9% | viability, T/C (second compound 1 µM, first compound 0.0949 µM) 108% | viability, T/C (second compound 1 µM, first compound 0.3 µM) 85.6% | viability, T/C (second compound 3.16 µM, first compound 0.000949 µM) 79.8% | viability, T/C (second compound 3.16 µM, first compound 0.003 µM) 81% | viability, T/C (second compound 3.16 µM, first compound 0.00949 µM) 91.8% | viability, T/C (second compound 3.16 µM, first compound 0.03 µM) 87.9% | viability, T/C (second compound 3.16 µM, first compound 0.0949 µM) 85.8% | viability, T/C (second compound 3.16 µM, first compound 0.3 µM) 88.7% | viability, T/C (second compound 10 µM, first compound 0.000949 µM) 88.7% | viability, T/C (second compound 10 µM, first compound 0.003 µM) 71.1% | viability, T/C (second compound 10 µM, first compound 0.00949 µM) 87% | viability, T/C (second compound 10 µM, first compound 0.03 µM) 79.4% | viability, T/C (second compound 10 µM, first compound 0.0949 µM) 76.4% | viability, T/C (second compound 10 µM, first compound 0.3 µM) 92.6%
